Test results as given in patent US4386198A, “2-Hydroxyaclacinomycin A and 2-hydroxyaklavinone and process for preparing same” (priority 1979, dated 1983).
≈ marks a conversion by molar mass, not a printed value.

Legend:
[1] = tested on: L 1210 leukemia; experiment: in vivo antitumor activity: L 1210 (prolongation of lifespan of CDF1 mice inoculated intraperitoneally with L 1210 cells); parameters: species or system mice (murine; CDF1); conditions: for T/C: once daily for 10 days, from 24 h after inoculation
Method: Antitumor effect against experimental animal tumor was examined as follows. CDF1 mice were inoculated with 1×10^5 cells of L 1210 cells intraperitoneally, and 2-hydroxyaclacinomycin A was administered intraperitoneally once daily for 10 days consecutively, 24 hours after inoculation. Prolongation of lifespan over controls (injected with only physiological saline instead of 2-hydroxyaclacinomycin A) is shown in Table 1. LD50 value in dd mice is also shown in Table 1 comparing with that of aclacinomycin A.

[2] = tested on: L 1210 cells; experiment: in vitro activity: L 1210 growth inhibition; format: cell-based, murine; conditions: for IC50: Mus musculus, L1210, L 1210, RPMI 1640 with 20% calf serum, 37° C.
Method: (§1) In an example, L 1210 cells were inoculated in RPMI (Rosewell Park Memorial Institute) 1640 medium containing 20% calf serum at the cell density of 5×10^4 cells/ml, and the compound in the present invention was simultaneously added to the medium at the concentration of 0.1 and 0.5 μg/ml and incubated at 37° C. in a CO2 incubator. 50% growth inhibition concentration of the compound over controls was determined. L 1210 cells as described above were also inoculated at 5×10^5 cells in RPMI 1640 medium containing 10% calf serum and incubated at 37° C. for 1 to 2 hours in a CO2 incubator. The cells were cultured for 15 min. at 37° C. after the compound of the present invention was added at various concentrations, and then ^14 C-uridine (0.05 μCi/ml) or ^14 C-thymidine (0.05 μCi/ml) was added and incubated for 60 additional min. at 37° C. After stopping the pulse-labeling by addition of 10% trichloroacetic acid (TCA) solution to the reaction mixture, acid-insoluble materials were precipitated, washed three times with 5 to 10% TCA, and dissolved in a small amount of formic acid. Then, radioactivity was determined, and inhibitory effects on the RNA and DNA biosynthesis were indicated by the 50% inhibition concentration (IC50) of the incorporation of radioactivity over controls.

[3] = tested on: DNA biosynthesis in L 1210 cells; experiment: in vitro activity: DNA synthesis in L 1210 cells (14C-thymidine incorporation); format: cell-based, murine; conditions: Mus musculus, L1210; L 1210, 14C-thymidine, 60 min pulse after 15 min with compound, 37° C.
Method: as §1

[4] = tested on: RNA biosynthesis in L 1210 cells; experiment: in vitro activity: RNA synthesis in L 1210 cells (14C-uridine incorporation); format: cell-based, murine; conditions: for IC50: Mus musculus, L1210, L 1210, 14C-uridine, 60 min pulse after 15 min with compound, 37° C.
Method: as §1

[5] = Acute toxicity (LD50) in dd mice; format: in vivo; conditions: mouse, in vivo, ip; dd mice
[6] = tested on: dd mice; experiment: Acute toxicity (LD50) in dd mice; format: in vivo; conditions: compared with daunomycin and adriamycin
[7] = tested on: L 1210 cells; experiment: growth and nucleic acid biosynthesis of murine leukemia L 1210 cells in culture; format: cell-based
Method: as §1

[8] = cardiotoxicity compared with aclacinomycin A; conditions: comparing with aclacinomycin A

Structure (SMILES): CCC1(O)CC(OC2CC(N(C)C)C(OC3CC(O)C(OC4CCC(=O)C(C)O4)C(C)O3)C(C)O2)c2c(cc3c(c2O)C(=O)c2c(O)cc(O)cc2C3=O)C1C(=O)OC (centres unmarked) [2-Hydroxyaclacinomycin A, 2-hydroxyaclacinomycin A]
- T/C ([1]; 0.5 mg/kg/day i.p.): 145%
- T/C ([1]; 1 mg/kg/day i.p.): 153%
- T/C ([1]; 2 mg/kg/day i.p.): 176%
- T/C ([1]; 4 mg/kg/day i.p.): 201%
- T/C ([1]; 6 mg/kg/day i.p.): 218%
- T/C ([1]; 8 mg/kg/day i.p.): 194%
- T/C ([1]; 12 mg/kg/day i.p.): 127%
- prolongation of lifespan, in words ([1]; L 1210-bearing mice): marked prolongation of lifespan
- antitumor activity, in words ([1]; comparing with aclacinomycin A): more potent antitumor activity
- effective dose range relative to aclacinomycin A ([1]; relative to aclacinomycin A): twice
- IC50 [2]: 0.1 µg/mL (≈ 0.121 µM)
- suppression of growth, in words ([2]; murine leukemic cells, low concentration): suppressed the growth of murine leukemic cells at low concentration
- IC50 [3]: 0.95 µg/mL (≈ 1.15 µM)
- IC50 [4]: 0.1 µg/mL (≈ 0.121 µM)
- inhibition of RNA synthesis, in words ([4]; mode of action compared to aclacinomycin and rhodomycin-group): specifically inhibited RNA synthesis
- LD50 [5]: 50 mg/kg
- acute toxicity, in words [6]: much more less than those of known anthracycline antibiotics such as daunomycin and adriamycin
- inhibition of growth and nucleic acid biosynthesis, in words [7]: inhibited markedly the growth and nucleic acid biosynthesis
- cardiotoxicity, in words [8]: less cardiotoxicity

Structure (SMILES): CC[C@@]1(O)C[C@H](O[C@H]2C[C@H](N(C)C)[C@H](O[C@H]3C[C@H](O)[C@H](O[C@H]4CCC(=O)[C@H](C)O4)[C@H](C)O3)[C@H](C)O2)c2c(cc3c(c2O)C(=O)c2c(O)cccc2C3=O)[C@H]1C(=O)OC [Aclacinomycin A]
- T/C ([1]; 0.5 mg/kg/day i.p.): 130%
- T/C ([1]; 1 mg/kg/day i.p.): 146%
- T/C ([1]; 2 mg/kg/day i.p.): 165%
- T/C ([1]; 4 mg/kg/day i.p.): 205%
- T/C ([1]; 6 mg/kg/day i.p.): 105%
- toxicity in words at 8 mg/kg/day (in T/C column) ([1]; 8 mg/kg/day i.p., L 1210-bearing CDF1 mice): Toxic
- IC50 [2]: 0.12 µg/mL (≈ 0.148 µM)
- IC50 [3]: 1.1 µg/mL (≈ 1.35 µM)
- IC50 [4]: 0.1 µg/mL (≈ 0.123 µM)
- LD50 [5]: 22.6 mg/kg
